Columns and labels:
Lactobacillus plantarum = test: Soft-agar overlay screen of peptide-expressing yeast, other lactic acid bacteria; type: cell-based
[1] = test system: Leuconostoc mesenteroides subsp. mesenteroides; test: as above; type: cell-based
Lactobacillus brevis = test: as above; type: cell-based
E. faecium NCCB 86023 = test: Soft-agar overlay screen of peptide-expressing yeast (BY4742)
L. lactis NCCB 26066 = test: as above
Lactobacillus amylovorus = test: Soft-agar overlay screen of peptide-expressing yeast, other lactic acid bacteria; type: cell-based; conditions: sometimes weak
[2] = test system: P. pentosaceus NCCB 31016; test: Soft-agar overlay screen of peptide-expressing yeast (BY4742)
[3] = test system: Lactococcus lactis subsp. cremoris; test: Soft-agar overlay screen of peptide-expressing yeast, other lactic acid bacteria; type: cell-based
L. reuteri CCUG 32624 = test: Soft-agar overlay screen of peptide-expressing yeast (BY4742)
W. confusa CCUG30113 = test: as above
Pediococcus damnosus = test: Soft-agar overlay screen of peptide-expressing yeast, other lactic acid bacteria; type: cell-based
W. confusa CCUG30943 = test: Soft-agar overlay screen of peptide-expressing yeast (BY4742)
[4] = test system: Lactobacillus delbrueckii subsp. delbrueckii; test: Soft-agar overlay screen of peptide-expressing yeast, other lactic acid bacteria; type: cell-based
Lactobacillus casei = test: as above; type: cell-based; conditions: sometimes weak
[5] = test system: L. delbrueckii CCUG 34222; test: Soft-agar overlay screen of peptide-expressing yeast (BY4742)
Pediococcus acidilactici = test: Soft-agar overlay screen of peptide-expressing yeast, other lactic acid bacteria; type: cell-based
P. pentosaceus = test: Small-scale mock ethanol fermentation contaminated with P. pentosaceus; type: cell-based, Pediococcus pentosaceus; conditions: 72 hours; contamination OD600 0.00005-0.05; virginiamycin 2 mg/L
Method: (§1) Small-scale mock ethanol fermentations were carried out in 2 mL microcentrifuge tubes with a venting hole in the cap made with a 30 gauge needle. Starter cultures of yeast were grown in YPD at 30° C. with agitation. Starter cultures of L. fermentum CCUG 72619 were grown in MRS at 37° C. without agitation. […] . Control fermentations contained 2 mg/L virginiamycin. The fermentations were incubated at 30° C. without agitation for 72 hours and then analyzed by HPLC.
(§2) . M2 wild-type with and without virginiamycin, M2-pPedA, M2-pPedA-K1A, M2-pPedA-K1A/T22A, and M2-pPedA-K1T were compared (FIGS. 14A-14D, 15A-15D). […] . The pediocin-expressing strains were not effective at completely preventing the lactic acid production by L. delbrueckii or P. pentosaceus. […] .

L. delbrueckii = test: Small-scale mock ethanol fermentation contaminated with L. delbrueckii; type: cell-based, Lactobacillus delbrueckii; conditions: 72 hours; contamination OD600 0.00005-0.05; virginiamycin 2 mg/L
Method: as §1, §2

L. fermentum CCUG 72619 = type: cell-based, Lactobacillus fermentum

Row | Substance | Antibacterial activity against Lactobacillus plantarum (Lactobacillus plantarum) | Antibacterial activity against Leuconostoc mesenteroides subsp. mesenteroides [1] | Antibacterial activity against Lactobacillus brevis (Lactobacillus brevis) | Inhibition, E. faecium NCCB 86023 (E. faecium NCCB 86023) | Inhibition, L. lactis NCCB 26066 (L. lactis NCCB 26066) | Antibacterial activity against Lactobacillus amylovorus (Lactobacillus amylovorus) | Growth inhibition zones of P. pentosaceus ([2]; FIG. 7, BY4742 with pHVXU-pedA, 30° C., 1 day) | Inhibition, P. pentosaceus NCCB 31016 ([2]; soft-agar overlay, peptide-expressing yeast) | Antibacterial activity against Lactococcus lactis subsp. cremoris [3] | Inhibition, L. reuteri CCUG 32624 (L. reuteri CCUG 32624) | Inhibition, W. confusa CCUG30113 (W. confusa CCUG30113) | Antibacterial activity against Pediococcus damnosus (Pediococcus damnosus) | Inhibition, W. confusa CCUG30943 (W. confusa CCUG30943) | Antibacterial activity against Lactobacillus delbrueckii subsp. delbrueckii [4] | Antibacterial activity against Lactobacillus casei (Lactobacillus casei) | Inhibition, L. delbrueckii CCUG 34222 [5] | Antibacterial activity against Pediococcus acidilactici (Pediococcus acidilactici) | Lactic acid production by P. pentosaceus (P. pentosaceus) | Lactic acid production by L. delbrueckii (L. delbrueckii) | Variability in residual glucose (L. fermentum CCUG 72619)
1 | Pediocin PA-1 from [Pediococcus acidilactici] (KYYGNGVTCGKHSCSVDWGKATTCIINNGAMAWATGGHQGNHKC; listed as Pediococcus acidilactici) | showed antibacterial activity | showed antibacterial activity | showed antibacterial activity | + | + | showed some antibacterial activity | Growth inhibition zones of P. pentosaceus are observable | + | showed antibacterial activity | − | − | showed antibacterial activity | − | showed antibacterial activity | showed some antibacterial activity | + | showed antibacterial activity |  |  | 
2 | virginiamycin |  |  |  |  |  |  |  |  |  |  |  |  |  |  |  |  |  | effective at preventing the lactic acid production | effective at preventing the lactic acid production | tended to be reduced

— US12168763B2, “Microorganisms and methods for reducing bacterial contamination” (Melio Peptide Systems Inc., priority 2020, dated 2024)
